# Test results from patent US8030300B2, “Ligands for nicotinic acetylcholine receptors, and methods of making and using them” (priority 2003, dated 2011).
# Like-named read-outs stand apart in the source and are kept apart here.
# Columns and labels:
# Format in all cases: binding
# [1] = molecular target: T1, receptors in rat forebrain (mainly α4β2) (Rattus norvegicus, UniProt P09483+P12390); conditions: Table 6, [3H]-EB 0.099 nM, 0.091 nM, n = 1
# T1 construct: from tissue; host or cells: rat forebrain homogenate
# [2] = molecular target: T1, receptors in rat forebrain (mainly α4β2); assay: biochemical
# Description: (§1) In order to assess the steric and hydropathic effects of the C-5 substituents of the pyridine on the binding affinity and subtype-selectivity at neuronal nicotinic acetylcholine receptors. […] The binding affinity ratios for a ligand, calculated from its affinities at an α subunit paired with either the β2 osubunit or the β4 subunit, represents a measure of the selectivity of that ligand with regard to the β subunits.
# (§2) In Vitro Inhibition of ^3H-Epibatidin Binding
# (§3) The high affinity binding site for ^3H-epibatidin is most certainly binding to the α4β2 subtype of nicotinic receptors. The identity of the low affinity site is still believed to be unknown.
# (§4) Tissue preparation: Preparations may be performed at 0-4° C. unless otherwise indicated. […] The tissue suspension may then be centrifuged at 27,000×g for 10 min. The supernatant is then discarded and the pellet may then be washed three times by centrifugation at 27,000×g for 10 min in 20 mL fresh buffer, and the final pellet may be resuspended in fresh buffer (400 mL per g of original tissue) and used for binding assays.
# (§5) Assay: Aliquots of 2.0 mL homogenate may be added to 0.100 mL of test solution and 0.100 mL of ^3H-epibatidin (0.3 nM, final concentration), mixed and incubated for 60 min at room temperature. […] The amount of radioactivity on the filters may be determined by conventional liquid scintillation counting. Specific binding is total binding minus non-specific binding.
# [3] = molecular target: T2, α3β4 nAChR subtype (Rattus norvegicus, UniProt P04757+P12392); assay: biochemical
# T2 construct: expressed in transfected cells
# Description: as §1
# [4] = molecular target: T3, α4β4 nAChR subtype (Rattus norvegicus, UniProt P09483+P12392); assay: biochemical
# T3 construct: expressed in transfected cells
# Description: as §1
# [5] = molecular target: T4, α4β2 nAChR subtype (Rattus norvegicus, UniProt P09483+P12390); assay: biochemical
# T4 construct: expressed in transfected cells
# Description: as §1
# [6] = molecular target: T5, α2β4 nAChR subtype (Rattus norvegicus, UniProt P12389+P12392); assay: biochemical
# T5 construct: expressed in transfected cells
# Description: as §1
# [7] = molecular target: T6, α2β2 nAChR subtype (Rattus norvegicus, UniProt P12389+P12390); assay: biochemical
# T6 construct: expressed in transfected cells
# Description: as §1
# [8] = molecular target: T7, α3β2 nAChR subtype (Rattus norvegicus, UniProt P04757+P12390); assay: biochemical
# T7 construct: expressed in transfected cells
# Description: as §1
# [9] = tested on: receptors in rat forebrain (mainly α4β2); assay: biochemical; conditions: Table 3; ratio of the corresponding Ki values
# Description: as §1, §2, §3, §4, §5
# [10] = Table 5, *Rat forebrain, mainly α4β2, read-out: Ki α4β2*
# [11] = Table 5, rat nAChR subtypes, read-out: Ki α3β4
# [12] = Table 6, [3H]-EB 0.099 nM, 0.091 nM, ligand 0.00197-100 μM, n = 1, read-out: Ki α3β4
# [13] = Table 5, rat nAChR subtypes, read-out: Ki α4β4
# [14] = Table 6, [3H]-EB 0.099 nM, 0.091 nM, ligand 0.00197-100 μM, n = 1, read-out: Ki α4β4
# [15] = Table 5, rat nAChR subtypes, read-out: Ki α4β2
# [16] = Table 6, [3H]-EB 0.099 nM, 0.091 nM, ligand 0.00197-100 μM, n = 1, read-out: Ki α4β2
# [17] = Table 5, rat nAChR subtypes, read-out: Ki α2β4
# [18] = Table 6, [3H]-EB 0.099 nM, 0.091 nM, ligand 0.00197-100 μM, n = 1, read-out: Ki α2β4
# [19] = Table 5, rat nAChR subtypes, read-out: Ki α2β2
# [20] = Table 6, [3H]-EB 0.099 nM, 0.091 nM, ligand 0.00197-100 μM, n = 1, read-out: Ki α2β2
# [21] = Table 5, rat nAChR subtypes, read-out: Ki α3β2
# [22] = Table 6, [3H]-EB 0.099 nM, 0.091 nM, ligand 0.00197-100 μM, n = 1, read-out: Ki α3β2
# [23] = Ki α4β2*, Table 5, *Rat forebrain, mainly α4β2
# [24] = Ki α4β4, Table 5, rat nAChR subtypes
# [25] = Ki α4β2, Table 5, rat nAChR subtypes
# [26] = Ki α3β2, Table 5, rat nAChR subtypes
# T5 sequence (P12389 28-511): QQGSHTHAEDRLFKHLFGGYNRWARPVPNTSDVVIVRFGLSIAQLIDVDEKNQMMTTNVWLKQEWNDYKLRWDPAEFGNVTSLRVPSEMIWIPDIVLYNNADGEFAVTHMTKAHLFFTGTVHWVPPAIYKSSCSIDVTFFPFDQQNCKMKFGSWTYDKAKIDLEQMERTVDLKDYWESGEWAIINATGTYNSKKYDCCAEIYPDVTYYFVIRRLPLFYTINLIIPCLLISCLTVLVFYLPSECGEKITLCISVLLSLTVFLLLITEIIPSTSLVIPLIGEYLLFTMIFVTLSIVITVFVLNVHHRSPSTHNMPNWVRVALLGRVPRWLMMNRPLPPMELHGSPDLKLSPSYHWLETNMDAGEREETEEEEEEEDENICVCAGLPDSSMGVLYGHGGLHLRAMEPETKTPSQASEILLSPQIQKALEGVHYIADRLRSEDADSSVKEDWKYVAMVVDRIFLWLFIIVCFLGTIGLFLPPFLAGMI
# T5 sequence (P12392 21-495): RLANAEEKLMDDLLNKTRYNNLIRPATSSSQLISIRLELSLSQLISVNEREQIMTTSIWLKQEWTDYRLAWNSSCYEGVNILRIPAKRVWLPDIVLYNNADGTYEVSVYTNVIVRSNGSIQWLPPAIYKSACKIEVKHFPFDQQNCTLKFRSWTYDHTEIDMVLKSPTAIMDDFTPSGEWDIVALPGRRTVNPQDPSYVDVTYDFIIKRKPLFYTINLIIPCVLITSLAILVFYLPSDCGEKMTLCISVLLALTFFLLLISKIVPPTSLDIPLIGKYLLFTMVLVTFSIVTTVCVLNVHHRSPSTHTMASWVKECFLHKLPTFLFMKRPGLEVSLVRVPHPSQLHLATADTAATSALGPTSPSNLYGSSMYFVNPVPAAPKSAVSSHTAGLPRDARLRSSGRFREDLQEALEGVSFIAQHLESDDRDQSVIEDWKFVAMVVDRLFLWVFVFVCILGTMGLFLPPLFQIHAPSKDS
# T1 sequence (P09483 31-630): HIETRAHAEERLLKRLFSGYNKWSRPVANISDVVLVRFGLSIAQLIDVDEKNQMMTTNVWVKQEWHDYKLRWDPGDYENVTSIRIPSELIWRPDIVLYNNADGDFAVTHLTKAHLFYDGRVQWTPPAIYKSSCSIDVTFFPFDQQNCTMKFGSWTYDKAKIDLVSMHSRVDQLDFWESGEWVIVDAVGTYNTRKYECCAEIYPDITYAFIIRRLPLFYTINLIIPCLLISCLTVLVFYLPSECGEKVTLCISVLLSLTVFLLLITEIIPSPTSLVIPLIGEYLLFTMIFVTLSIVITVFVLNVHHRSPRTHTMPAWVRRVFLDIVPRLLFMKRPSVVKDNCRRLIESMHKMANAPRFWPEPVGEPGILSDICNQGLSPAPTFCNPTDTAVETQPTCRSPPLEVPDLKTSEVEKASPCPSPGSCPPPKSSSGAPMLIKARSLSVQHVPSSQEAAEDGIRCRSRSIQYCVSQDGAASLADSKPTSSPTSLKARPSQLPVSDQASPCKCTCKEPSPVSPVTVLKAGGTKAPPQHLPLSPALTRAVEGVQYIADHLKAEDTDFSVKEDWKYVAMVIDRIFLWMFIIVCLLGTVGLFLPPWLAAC
# T1 sequence (P12390 25-500): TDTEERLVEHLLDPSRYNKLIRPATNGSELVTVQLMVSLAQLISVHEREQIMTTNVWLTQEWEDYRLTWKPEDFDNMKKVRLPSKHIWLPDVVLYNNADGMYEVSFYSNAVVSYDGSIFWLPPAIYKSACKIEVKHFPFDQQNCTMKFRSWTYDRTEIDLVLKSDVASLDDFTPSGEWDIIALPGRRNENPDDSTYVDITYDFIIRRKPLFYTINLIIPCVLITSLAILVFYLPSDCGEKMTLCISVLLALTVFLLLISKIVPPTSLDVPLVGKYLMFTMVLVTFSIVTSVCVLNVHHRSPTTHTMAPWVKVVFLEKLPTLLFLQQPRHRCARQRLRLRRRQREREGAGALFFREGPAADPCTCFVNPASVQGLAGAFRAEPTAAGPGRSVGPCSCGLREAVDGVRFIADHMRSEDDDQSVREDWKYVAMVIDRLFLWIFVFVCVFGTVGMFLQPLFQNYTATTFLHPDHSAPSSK
# T6 sequence (P12390 25-500): as above
# T6 sequence (P12389 28-511): as the sequence (P12389 28-511) above
# T4 sequence (P12390 25-500): as the sequence (P12390 25-500) above
# T4 sequence (P09483 31-630): as the sequence (P09483 31-630) above
# T7 sequence (P12390 25-500): as the sequence (P12390 25-500) above
# T7 sequence (P04757 26-499): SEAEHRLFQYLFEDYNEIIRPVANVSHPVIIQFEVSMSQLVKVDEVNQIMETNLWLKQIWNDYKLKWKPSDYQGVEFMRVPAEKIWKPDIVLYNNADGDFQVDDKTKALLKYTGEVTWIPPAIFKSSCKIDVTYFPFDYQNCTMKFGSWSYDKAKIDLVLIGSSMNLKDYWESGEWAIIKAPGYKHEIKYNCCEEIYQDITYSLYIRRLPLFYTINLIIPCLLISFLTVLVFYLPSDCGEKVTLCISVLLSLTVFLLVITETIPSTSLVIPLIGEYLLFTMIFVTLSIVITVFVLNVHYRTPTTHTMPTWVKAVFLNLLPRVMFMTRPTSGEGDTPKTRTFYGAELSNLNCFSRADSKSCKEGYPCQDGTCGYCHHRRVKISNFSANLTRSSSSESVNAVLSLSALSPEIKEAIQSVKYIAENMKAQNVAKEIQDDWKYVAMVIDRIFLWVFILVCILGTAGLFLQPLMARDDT
# T3 sequence (P12392 21-495): as the sequence (P12392 21-495) above
# T3 sequence (P09483 31-630): as the sequence (P09483 31-630) above
# T2 sequence (P04757 26-499): as the sequence (P04757 26-499) above
# T2 sequence (P12392 21-495): as the sequence (P12392 21-495) above
smiles,measurement,setting,value
"CN1CCC[C@H]1COc1cncc(C#CC(C)(C)O)c1 [Ligand 15, 5-(3-Hydroxy-3-methyl-1-butynyl)-3-(1-methyl-2(S)pyrrolidinylmethoxy)pyridine]",Ki,[1],0.00839 µM
same,Ki,[2]; [10],0.00839 µM
same,Ki,[3]; [11],32.6 µM
same,Ki,[3]; [12],32.6 µM
same,Ki,[4]; [13],5.06 µM
same,Ki,[4]; [14],5.06 µM
same,Ki,[5]; [15],0.00134 µM
same,Ki,[5]; [16],0.00134 µM
same,Ki,[6]; [17],5.89 µM
same,Ki,[6]; [18],5.89 µM
same,Ki,[7]; [19],0.00193 µM
same,Ki,[7]; [20],0.00193 µM
same,Ki,[8]; [21],0.0197 µM
same,Ki,[8]; [22],0.0197 µM
"CN1CCC[C@H]1COc1cncc(C#CCO)c1 [Ligand 14, 5-(3-Hydroxy-1-propargyl)-3-(1-methyl-2(S)-pyrrolidinylmethoxy)pyridine]",Ki,[1],0.00316 µM
same,Ki,[2]; [10],0.00316 µM
same,Ki,[3]; [11],18.2 µM
same,Ki,[3]; [12],18.2 µM
same,Ki,[4]; [13],1.69 µM
same,Ki,[4]; [14],1.69 µM
same,Ki,[5]; [15],0.000954 µM
same,Ki,[5]; [16],0.000954 µM
same,Ki,[6]; [17],1.88 µM
same,Ki,[6]; [18],1.88 µM
same,Ki,[7]; [19],0.00243 µM
same,Ki,[7]; [20],0.00243 µM
same,Ki,[8]; [21],0.00764 µM
same,Ki,[8]; [22],0.00764 µM
FCCCCC#Cc1cncc(OC[C@@H]2CCN2)c1 [Ligand 41],Affinity ratio (α3β4/Forbrain),[9],"15,166"
same,affinities for α4β2 nAChR subtype (in words),[5],subnanomolar
"O[C@H]1C[C@H]2C[C@H](c3ccc(Cl)nc3)[C@@H]1N2 (relative stereo) [Ligand 9, 2-exo-(2-Chloro-5-pyridyl)-6-endo-hydroxyl-7-azabicyclo[2.2.1]heptane]",Ki,[2]; [23],0.00411 µM
same,Ki,"[3]; Ki α3β4, Table 5, rat nAChR subtypes",0.0273 µM
same,Ki,[4]; [24],0.00557 µM
same,Ki,[5]; [25],0.000916 µM
same,Ki,"[6]; Ki α2β4, Table 5, rat nAChR subtypes",0.00585 µM
same,Ki,"[7]; Ki α2β2, Table 5, rat nAChR subtypes",0.00153 µM
same,Ki,[8]; [26],0.00136 µM
Clc1ccc2c(n1)CCC1C3CCC(N3)C21 (stereo not shown) [Ligand 37b],Ki,[2]; [23],0.576 µM
same,Ki,"[3]; Table 3, mean ± SEM of 3 (nicotine, 1: 3 to 6) independent measurements, read-out: Ki α3β4",0.201 µM
same,Ki,[3]; [11],0.201 µM
same,Ki,[4]; [24],0.0398 µM
same,Ki,"[4]; Table 3, mean ± SEM of 3 (nicotine, 1: 3 to 6) independent measurements, read-out: Ki α4β4",0.041 µM
same,Ki,[5]; [25],0.21 µM
same,Ki,"[5]; Table 3, mean ± SEM of 3 (nicotine, 1: 3 to 6) independent measurements, read-out: Ki α4β2",0.295 µM
same,Ki,"[6]; Table 3, mean ± SEM of 3 (nicotine, 1: 3 to 6) independent measurements, read-out: Ki α2β4",0.032 µM
same,Ki,[6]; [17],0.0322 µM
same,Ki,"[7]; Table 3, mean ± SEM of 3 (nicotine, 1: 3 to 6) independent measurements, read-out: Ki α2β2",0.059 µM
same,Ki,[7]; [19],0.0594 µM
same,Ki,[8]; [26],0.541 µM
same,Ki,"[8]; Table 3, mean ± SEM of 3 (nicotine, 1: 3 to 6) independent measurements, read-out: Ki α3β2",0.53 µM
"CN1CCC[C@H]1COc1cncc(C#CCNC(=O)OC(C)(C)C)c1 [Ligand 13, 5-(3-tert-Butoxycarbonylamino-1-propynyl)-3-(1-methyl-2(S)-pyrrolidinylmethoxy)pyridine]",Ki,"[2]; read-out: Ki α4β2*, Table 5, *Rat forebrain, mainly α4β2",0.00371 µM
same,Ki,"[3]; read-out: Ki α3β4, Table 5, rat nAChR subtypes",59.9 µM
same,Ki,"[4]; read-out: Ki α4β4, Table 5, rat nAChR subtypes",8.28 µM
same,Ki,"[5]; read-out: Ki α4β2, Table 5, rat nAChR subtypes",0.00207 µM
same,Ki,"[6]; read-out: Ki α2β4, Table 5, rat nAChR subtypes",8.24 µM
same,Ki,"[7]; read-out: Ki α2β2, Table 5, rat nAChR subtypes",0.00119 µM
same,Ki,"[8]; read-out: Ki α3β2, Table 5, rat nAChR subtypes",0.00727 µM
CC(N)C#Cc1cncc(OC[C@@H]2CCCN2C)c1 (stereo partly shown) [ZW-99],Ki,[2],0.0414 µM
same,Ki,[3],127 µM
same,Ki,[4],6.13 µM
same,Ki,[5],0.00718 µM
same,Ki,[6],7.4 µM
same,Ki,[7],0.00752 µM
same,Ki,[8],0.0474 µM
